The record followed here is publication PMC9299109 (Iubmb Life, 2021).

Structures are written as SMILES.

Test [1] concerns the target T1, BoFADS (FAD synthase from Brucella ovis) (Brucella ovis, UniProt A0A0H3AW96). Nature of the test: biochemical.
For test [2], the target named is T1, BoFADS (FAD synthase from Brucella ovis).

T1 sequence (A0A0H3AW96 1-329): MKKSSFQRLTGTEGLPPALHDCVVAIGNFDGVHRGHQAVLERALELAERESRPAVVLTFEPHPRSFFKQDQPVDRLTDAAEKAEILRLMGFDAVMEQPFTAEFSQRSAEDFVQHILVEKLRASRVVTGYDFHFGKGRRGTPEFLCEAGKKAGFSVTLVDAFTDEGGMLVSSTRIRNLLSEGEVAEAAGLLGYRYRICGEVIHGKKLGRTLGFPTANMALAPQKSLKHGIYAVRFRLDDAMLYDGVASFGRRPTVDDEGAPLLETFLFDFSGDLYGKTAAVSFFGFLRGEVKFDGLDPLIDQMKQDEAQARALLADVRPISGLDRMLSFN

In the case of `Cc1cc2nc3c(=O)[nH]c(=O)nc-3n(C[C@H](O)[C@H](O)[C@H](O)COP(=O)(O)O)c2cc1C` [FMN, flavin mononucleotide], the Kd in test [1] was 290 ± 100 nM.

The molecule `Cc1cc2nc3c(=O)[nH]c(=O)nc-3n(C[C@H](O)[C@H](O)[C@H](O)CO)c2cc1C` [RF, riboflavin] registered a Kd in test [1] of 410 ± 60 nM.

As to `Nc1ncnc2c1ncn2[C@@H]1O[C@H](COP(=O)(O)OP(=O)(O)O)[C@@H](O)[C@H]1O` [ADP], the “visible difference spectroscopy, FMN titration with ADP” value in test [2] is “titrated with oxidized FMN in the presence of ADP but not in its absence”.

As a reminder, the Kd is the equilibrium constant for the complex coming apart. The low end stands for a tighter complex, the high end for a looser complex.
